Data published in patent US11970473B2, “Nootkatone derivatives and methods of using the same” (Arkansas State University—Jonesboro, priority 2021, dated 2024).
Values after ≈ are worked out from the molar mass of the structure shown. Like-named read-outs stand apart in the source and are kept apart here.

Legend:
Assay in all cases: Minimal inhibitory concentration (MIC) assay
Format in all cases: cell-based
[1] = tested on: B. subtilis ATCC 6623 (Bs); details: Bacillus subtilis
Method: (§1) Minimal inhibitory concentration (MIC) assay The standard microdilution method recommended by the Clinical and Laboratory Standards Institute (CLSI) was used to determine the MIC of the antibiotics. The starting concentration of compounds was 50 μg/ml and 2-fold dilution was done down the 96 honeycomb well plate column. The MIC assay was conducted in triplicates.

[2] = tested on: Enterococcus faecalis ATCC 29212 (Es12)
Method: as §1

[3] = tested on: Enterococcus faecium ATCC 700221 (Em21); details: Enterococcus faecium
Method: as §1

[4] = tested on: S. aureus ATCC 25923 (Sa23); details: Staphylococcus aureus
Method: as §1

[5] = tested on: S. aureus ATCC 33591 (Sa91); details: Staphylococcus aureus
Method: as §1

[6] = tested on: S. aureus ATCC 33592 (Sa92); details: Staphylococcus aureus
Method: as §1

[7] = tested on: S. aureus ATCC 700699 (Sa99); details: Staphylococcus aureus
Method: as §1

[8] = tested on: S. aureus BAA-2312 (Sa12); details: Staphylococcus aureus
Method: as §1

[9] = tested on: S. epidermidis 700296 (Se); details: Staphylococcus epidermidis, read-out: Antimicrobial activity (MIC) Se
Method: as §1

[10] = ATCC6623, B. subtilis ATCC 6623, read-out: Antimicrobial activity (MIC) Bs
[11] = ATCC29212, Enterococcus faecalis ATCC 29212, read-out: Antimicrobial activity (MIC) Es12
[12] = ATCC700221, Enterococcus faecium ATCC 700221, read-out: Antimicrobial activity (MIC) Em21
[13] = ATCC25923, S. aureus ATCC 25923, antibiotic susceptible strain, read-out: Antimicrobial activity (MIC) Sa23
[14] = ATCC33591, S. aureus ATCC 33591, antibiotic-resistant strain, read-out: Antimicrobial activity (MIC) Sa91
[15] = ATCC33592, S. aureus ATCC 33592, antibiotic-resistant strain, read-out: Antimicrobial activity (MIC) Sa92
[16] = ATCC700699, S. aureus ATCC 700699, antibiotic-resistant strain, read-out: Antimicrobial activity (MIC) Sa99
[17] = BAA2312, S. aureus BAA-2312, antibiotic-resistant strain, read-out: Antimicrobial activity (MIC) Sa12

| Structure (SMILES) | MIC [1, 10] | MIC [2, 11] | MIC [3, 12] | MIC [4, 13] | MIC [5, 14] | MIC [6, 15] | MIC [7, 16] | MIC [8, 17] | MIC ([9]; S. epidermidis 700296) | MIC ([1]; ATCC6623, read-out: Antimicrobial activity (MIC) Bs) | MIC ([2]; Enterococcus faecalis, ATCC29212, read-out: Antimicrobial activity (MIC) Es12) | MIC ([3]; ATCC700221, read-out: Antimicrobial activity (MIC) Em21) | MIC ([4]; ATCC25923, read-out: Antimicrobial activity (MIC) Sa23) | MIC ([5]; ATCC33591, read-out: Antimicrobial activity (MIC) Sa91) | MIC ([6]; ATCC33592, read-out: Antimicrobial activity (MIC) Sa92) | MIC ([7]; ATCC700699, read-out: Antimicrobial activity (MIC) Sa99) | MIC ([8]; BAA2312, read-out: Antimicrobial activity (MIC) Sa12) | MIC [9] |
| --- | --- | --- | --- | --- | --- | --- | --- | --- | --- | --- | --- | --- | --- | --- | --- | --- | --- | --- |
| C=C(C)[C@@H]1CC=C2c3sc(Cc4ccccc4)nc3C[C@@H](C)[C@]2(C)C1 [Compound 3, (5R,5aS,7R)-2-benzyl-7-isopropenyl-5,5a-dimethyl-5,6,7,8-tetrahydro-4H-benzo[g][1,3]benzothiazole] | > 100 µg/mL | > 100 µg/mL | > 100 µg/mL | > 100 µg/mL | > 100 µg/mL | > 100 µg/mL | > 100 µg/mL | > 100 µg/mL | > 100 µg/mL |  |  |  |  |  |  |  |  |  |
| C=C(C)[C@@H]1CC=C2c3sc(Cc4ccccc4C)nc3C[C@@H](C)[C@]2(C)C1 [Compound 4, (5R,5aS,7R)-7-isopropenyl-5,5a-dimethyl-2-(o-tolylmethyl)-5,6,7,8-tetrahydro-4H-benzo[g][1,3]benzothiazole] |  |  |  |  |  |  |  |  |  | > 100 µg/mL | > 100 µg/mL | > 100 µg/mL | > 100 µg/mL | > 100 µg/mL | > 100 µg/mL | > 100 µg/mL | > 100 µg/mL | > 100 µg/mL |
| C=C(C)[C@@H]1CC=C2c3sc(C4CCOCC4)nc3C[C@@H](C)[C@]2(C)C1 [Compound 5, (5R,5aS,7R)-7-isopropenyl-5,5a-dimethyl-2-tetrahydropyran-4-yl-5,6,7,8-tetrahydro-4H-benzo[g][1,3]benzothiazole] | 50 µg/mL (≈ 146 µM) | > 100 µg/mL | > 100 µg/mL | 100 µg/mL (≈ 291 µM) | > 100 µg/mL | 100 µg/mL (≈ 291 µM) | > 100 µg/mL | 100 µg/mL (≈ 291 µM) | > 100 µg/mL |  |  |  |  |  |  |  |  |  |
| C=C(C)[C@@H]1CC=C2c3sc(-c4ccccc4)nc3C[C@@H](C)[C@]2(C)C1 [Compound 7, (5R,5aS,7R)-7-isopropenyl-5,5a-dimethyl-2-phenyl-5,6,7,8-tetrahydro-4H-benzo[g][1,3]benzothiazole] | > 100 µg/mL | > 100 µg/mL | > 100 µg/mL |  | > 100 µg/mL | > 100 µg/mL | > 100 µg/mL | > 100 µg/mL | > 100 µg/mL |  |  |  |  |  |  |  |  |  |
| C=C(C)[C@@H]1CC=C2c3sc(-c4ccc(C(C)(C)C)cc4)nc3C[C@@H](C)[C@]2(C)C1 [Compound 9, (5R,5aS,7R)-2-(4-tert-butylphenyl)-7-isopropenyl-5,5a-dimethyl-5,6,7,8-tetrahydro-4H-benzo[g][1,3]benzothiazole] | > 100 µg/mL | > 100 µg/mL | > 100 µg/mL |  | > 100 µg/mL | > 100 µg/mL | > 100 µg/mL | > 100 µg/mL | > 100 µg/mL |  |  |  |  |  |  |  |  |  |
| C=C(C)[C@@H]1CC=C2c3sc(-c4ccc(OC)cc4)nc3C[C@@H](C)[C@]2(C)C1 [Compound 10, (5R,5aS,7R)-7-isopropenyl-2-(4-methoxyphenyl)-5,5a-dimethyl-5,6,7,8-tetrahydro-4H-benzo[g][1,3]benzothiazole] | 50 µg/mL (≈ 137 µM) | > 100 µg/mL | > 100 µg/mL | 50 µg/mL (≈ 137 µM) | 100 µg/mL (≈ 274 µM) | > 100 µg/mL | > 100 µg/mL | 100 µg/mL (≈ 274 µM) | > 100 µg/mL |  |  |  |  |  |  |  |  |  |
| C=C(C)[C@@H]1CC=C2c3sc(-c4ccc(Oc5ccc(C(F)(F)F)cn5)cc4)nc3C[C@@H](C)[C@]2(C)C1 [Compound 12, (5R,5aS,7R)-7-isopropenyl-5,5a-dimethyl-2-[4-[[5-(trifluoromethyl)-2-pyridyl]oxy]phenyl]-5,6,7,8-tetrahydro-4H-benzo[g][1,3]benzothiazole] | > 100 µg/mL | > 100 µg/mL | > 100 µg/mL |  | > 100 µg/mL | > 100 µg/mL | > 100 µg/mL | > 100 µg/mL | > 100 µg/mL |  |  |  |  |  |  |  |  |  |
| C=C(C)[C@@H]1CC=C2c3sc(-c4ccccc4O)nc3C[C@@H](C)[C@]2(C)C1 [Compound 13, 2-[(5R,5aS,7R)-7-isopropenyl-5,5a-dimethyl-5,6,7,8-tetrahydro-4H-benzo[g][1,3]benzothiazol-2-yl]phenol] | 50 µg/mL (≈ 142 µM) | > 100 µg/mL | > 100 µg/mL | 50 µg/mL (≈ 142 µM) | 100 µg/mL (≈ 284 µM) | > 100 µg/mL | > 100 µg/mL | 100 µg/mL (≈ 284 µM) | > 100 µg/mL |  |  |  |  |  |  |  |  |  |
| C=C(C)[C@@H]1CC=C2c3sc(-c4ccc([N+](=O)[O-])cc4)nc3C[C@@H](C)[C@]2(C)C1 [Compound 23, (5R,5aS,7R)-7-isopropenyl-5,5a-dimethyl-2-(4-nitrophenyl)-5,6,7,8-tetrahydro-4H-benzo [g][1,3]benzothiazole] | > 100 µg/mL | > 100 µg/mL | > 100 µg/mL |  | > 100 µg/mL | > 100 µg/mL | > 100 µg/mL | > 100 µg/mL | > 100 µg/mL |  |  |  |  |  |  |  |  |  |

Second part, led by results:

| MIC [1, 10] | MIC [2, 11] | MIC [3, 12] | MIC [4, 13] | MIC [5, 14] | MIC [6, 15] | MIC [7, 16] | MIC [8, 17] | MIC ([9]; S. epidermidis 700296) | Structure (SMILES) | MIC ([1]; ATCC6623, read-out: Antimicrobial activity (MIC) Bs) | MIC ([2]; Enterococcus faecalis, ATCC29212, read-out: Antimicrobial activity (MIC) Es12) | MIC ([3]; ATCC700221, read-out: Antimicrobial activity (MIC) Em21) | MIC ([4]; ATCC25923, read-out: Antimicrobial activity (MIC) Sa23) | MIC ([5]; ATCC33591, read-out: Antimicrobial activity (MIC) Sa91) | MIC ([6]; ATCC33592, read-out: Antimicrobial activity (MIC) Sa92) | MIC ([7]; ATCC700699, read-out: Antimicrobial activity (MIC) Sa99) | MIC ([8]; BAA2312, read-out: Antimicrobial activity (MIC) Sa12) | MIC [9] |
| --- | --- | --- | --- | --- | --- | --- | --- | --- | --- | --- | --- | --- | --- | --- | --- | --- | --- | --- |
| > 100 µg/mL | > 100 µg/mL | > 100 µg/mL | 50 µg/mL (≈ 132 µM) | > 100 µg/mL | > 100 µg/mL | > 100 µg/mL | > 100 µg/mL | > 100 µg/mL | C=C(C)[C@@H]1CC=C2c3sc(-c4cccc(OCC)c4)nc3C[C@@H](C)[C@]2(C)C1 [Compound 11, (5R,5aS,7R)-2-(3-ethoxyphenyl)-7-isopropenyl-5,5a-dimethyl-5,6,7,8-tetrahydro-4H-benzo[g][1,3]benzothiazole] |  |  |  |  |  |  |  |  |  |
| > 100 µg/mL | > 100 µg/mL | > 100 µg/mL | 50 µg/mL (≈ 142 µM) | > 100 µg/mL | > 100 µg/mL | > 100 µg/mL | > 100 µg/mL | > 100 µg/mL | C=C(C)[C@@H]1CC=C2c3sc(-c4cccc(O)c4)nc3C[C@@H](C)[C@]2(C)C1 [Compound 14, 3-[(5R,5aS,7R)-7-isopropenyl-5,5a-dimethyl-5,6,7,8-tetrahydro-4H-benzo[g][1,3]benzothiazol-2-yl]phenol] |  |  |  |  |  |  |  |  |  |
| > 100 µg/mL | > 100 µg/mL | > 100 µg/mL |  | > 100 µg/mL | > 100 µg/mL | > 100 µg/mL | > 100 µg/mL | > 100 µg/mL | C=C(C)[C@@H]1CC=C2c3sc(-c4ccc(C(F)(F)F)cc4)nc3C[C@@H](C)[C@]2(C)C1 [Compound 22, (5R,5aS,7R)-7-isopropenyl-5,5a-dimethyl-2-[4-(trifluoromethyl)phenyl]-5,6,7,8-tetra-tetrahydro-4H-benzo[g][1,3]benzothiazole] |  |  |  |  |  |  |  |  |  |
| > 100 µg/mL | > 100 µg/mL | > 100 µg/mL |  | > 100 µg/mL | > 100 µg/mL | > 100 µg/mL | > 100 µg/mL | > 100 µg/mL | C=C(C)[C@@H]1CC=C2c3sc(Nc4ccccc4C(F)(F)F)nc3C[C@@H](C)[C@]2(C)C1 [Compound 27, (5R,5aS,7R)-7-isopropenyl-5,5a-dimethyl-N-[2-(trifluoromethyl)phenyl]-5,6,7,8-tetrahydro-4H-benzo[g][1,3]benzothiazol-2-amine] |  |  |  |  |  |  |  |  |  |
| > 100 µg/mL | > 100 µg/mL | > 100 µg/mL |  | > 100 µg/mL | > 100 µg/mL | > 100 µg/mL | > 100 µg/mL | > 100 µg/mL | C=C(C)[C@@H]1CC=C2c3sc(Nc4cccc(C(F)(F)F)c4)nc3CC[C@]2(C)[C@H]1C [Compound 28, (5aR,6S,7R)-7-isopropenyl-5a,6-dimethyl-N-[3-(trifluoromethyl)phenyl]-5,6,7,8-tetrahydro-4H-benzo[g][1,3]benzothiazol-2-amine] |  |  |  |  |  |  |  |  |  |
| > 100 µg/mL | > 100 µg/mL | > 100 µg/mL |  | > 100 µg/mL | > 100 µg/mL | > 100 µg/mL | > 100 µg/mL | > 100 µg/mL | C=C(C)[C@@H]1CC=C2c3sc(Nc4ccccc4[N+](=O)[O-])nc3C[C@@H](C)[C@]2(C)C1 [Compound 29, (5R,5aS,7R)-7-isopropenyl-5,5a-dimethyl-N-(2-nitrophenyl)-5,6,7,8-tetrahydro-4H-benzo[g][1,3]benzothiazol-2-amine] |  |  |  |  |  |  |  |  |  |
